SMILES strings stand for the structures.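 Five compound concentrations were applied to cells in 96-well plates for 48 hours; endpoints were derived by simple linear interpolation of the resulting dose-response curve. Here, GI50 denotes the concentration required for 50% inhibition of growth. TGI: total growth inhibition.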

Among the test systems are COLO 205 colon; EKVX NSCLC; RPMI-8226 leukemia; OVCAR-8 ovarian; HOP-62 NSCLC; OVCAR-4 ovarian; HOP-92 NSCLC; SN12C renal; SF-295 CNS; MOLT-4 leukemia.
Experiment in all cases: growth of human tumour cells (NCI), 48 h

As to `C=C(C)[C@@H]1CC[C@]2(CN)CC[C@]3(C)[C@H](CC[C@@H]4[C@@]5(C)CCC(N)[C@@](C)(CO)[C@@H]5CC[C@]43C)[C@@H]12` (stereo partly drawn), the GI50 with COLO 205 colon is 1.75 µM; with EKVX NSCLC, 1.55 µM; with RPMI-8226 leukemia, 1.77 µM; in the assay with OVCAR-8 ovarian it was 1.86 µM; in the assay with HOP-62 NSCLC, 1.78 µM; in the assay on OVCAR-4 ovarian, 1.64 µM. Also, the GI50 in the assay with HOP-92 NSCLC is 1.42 µM; in the assay on SN12C renal it was 1.74 µM; in the assay with SF-295 CNS, 1.76 µM; with MOLT-4 leukemia, 1.7 µM. The TGI in the assay with COLO 205 colon was determined as 3.38 µM; with EKVX NSCLC, 3.05 µM; in the assay on RPMI-8226 leukemia, 3.94 µM; in the assay on OVCAR-8 ovarian it was 3.57 µM; with HOP-62 NSCLC it was 3.24 µM; in the assay with OVCAR-4 ovarian, 3.26 µM. In addition, the TGI with HOP-92 NSCLC was 2.81 µM; in the assay on SN12C renal, 3.24 µM; in the assay with SF-295 CNS, 3.23 µM; in the assay with MOLT-4 leukemia it was 3.58 µM.

With `C[C@@H]1OC(=O)NN=C1c1ccc(-c2ccc(F)cc2)c(C(F)(F)F)c1`, the GI50 in the assay with COLO 205 colon was 11.8 µM; in the assay on RPMI-8226 leukemia, 5.78 µM; in the assay with OVCAR-8 ovarian it was 12.7 µM; in the assay on HOP-62 NSCLC it was 10.7 µM; with OVCAR-4 ovarian, 6.36 µM; with HOP-92 NSCLC, 11 µM. Moreover, the GI50 in the assay on SN12C renal is 5.63 µM; in the assay with SF-295 CNS, 5.49 µM; in the assay with MOLT-4 leukemia it was 5.27 µM. Also, the TGI worked out at 28 µM in the assay with COLO 205 colon; 12.4 µM in the assay with EKVX NSCLC; 51.2 µM with RPMI-8226 leukemia; 31.1 µM in the assay on OVCAR-8 ovarian; 26.2 µM with HOP-62 NSCLC; 20.6 µM in the assay with OVCAR-4 ovarian. Further, the TGI with HOP-92 NSCLC is 25.9 µM; in the assay with SN12C renal, 21.8 µM; in the assay on SF-295 CNS it was 19.2 µM; in the assay on MOLT-4 leukemia, 33.4 µM.

On to `O=C(Nc1ccc(-n2ccc3c(NC(=O)c4ccccc4)nccc32)cc1)c1ccc(N2CCOCC2)c(C(F)(F)F)c1`, for which the GI50 was 0.364 µM in the assay with COLO 205 colon; 3.9 µM with EKVX NSCLC; 0.0912 µM in the assay on RPMI-8226 leukemia; 0.115 µM in the assay on OVCAR-8 ovarian; 1.74 µM in the assay on HOP-62 NSCLC; 7.09 µM with OVCAR-4 ovarian. The GI50 in the assay on HOP-92 NSCLC is 1.96 µM; in the assay on SN12C renal it was 3.93 µM; with SF-295 CNS, 0.0621 µM; in the assay on MOLT-4 leukemia, 0.0421 µM. The TGI in the assay with COLO 205 colon is 32.4 µM; in the assay with EKVX NSCLC it was above 100 µM; in the assay on RPMI-8226 leukemia it was above 100 µM; in the assay on OVCAR-8 ovarian, 56.2 µM; with HOP-62 NSCLC, 23.1 µM; in the assay with OVCAR-4 ovarian, above 60.8 µM. The TGI in the assay on HOP-92 NSCLC is 18.1 µM; in the assay on SN12C renal, above 100 µM; in the assay with SF-295 CNS it was 1.7 µM; with MOLT-4 leukemia, above 100 µM.

On to `O=C(O)CNC(=O)C1NC(C(F)(F)F)(C(F)(F)F)OC1(C(F)(F)F)C(F)(F)F` (stereo not drawn), for which the TGI with COLO 205 colon, with EKVX NSCLC, in the assay with RPMI-8226 leukemia, in the assay with OVCAR-8 ovarian, in the assay with HOP-62 NSCLC and in the assay with OVCAR-4 ovarian was above 100 µM in each case. Moreover, the TGI in the assay on HOP-92 NSCLC, in the assay on SN12C renal, in the assay on SF-295 CNS and in the assay on MOLT-4 leukemia was above 100 µM each time.

For the compound `CC1(C)OC2COC(c3[nH]nc4c(=O)[nH]c(=O)[nH]c34)C2O1` (stereo not drawn), the TGI in the assay on COLO 205 colon, in the assay on EKVX NSCLC, in the assay on RPMI-8226 leukemia, in the assay with OVCAR-8 ovarian, in the assay with HOP-62 NSCLC and in the assay on OVCAR-4 ovarian was above 100 µM throughout. Moreover, the TGI in the assay with HOP-92 NSCLC, with SN12C renal, in the assay with SF-295 CNS and in the assay with MOLT-4 leukemia was above 100 µM each time.

As to `CN[C@H]1CC[C@]23C[C@]24CC[C@]2(C)[C@@H]([C@H](C)N(C)C)CC[C@@]2(C)[C@@H]4CC[C@H]3C1(C)C`, the TGI with COLO 205 colon was found to be 25.2 µM; with EKVX NSCLC, 37.9 µM; in the assay on RPMI-8226 leukemia, 31.3 µM; in the assay on OVCAR-8 ovarian it was 32.9 µM; with OVCAR-4 ovarian, 53.7 µM; in the assay on HOP-92 NSCLC it was 26 µM. For the same compound, the TGI with SN12C renal worked out at 29.1 µM; in the assay on SF-295 CNS, 31.2 µM; in the assay on MOLT-4 leukemia, 60.1 µM.

Consider `CCN(CC)CCC(=O)N1C/C(=C/c2ccccc2)C(=O)/C(=C\c2ccccc2)C1`, for which the TGI is 6.74 µM in the assay with COLO 205 colon; 13.6 µM with EKVX NSCLC; 0.568 µM in the assay on RPMI-8226 leukemia; 10.2 µM in the assay on OVCAR-8 ovarian; 26.1 µM in the assay on HOP-62 NSCLC; 6.04 µM in the assay on OVCAR-4 ovarian. In addition, the TGI with HOP-92 NSCLC was 17 µM; in the assay with SN12C renal, 3.39 µM; in the assay with SF-295 CNS, 5.15 µM; in the assay with MOLT-4 leukemia, 1.33 µM.

Consider `COc1ccc(-c2cc(-c3ccc(Cl)cc3)nc(SCCCCCCC(=O)NO)n2)cc1`, for which the GI50 with COLO 205 colon is 1.88 µM; in the assay on EKVX NSCLC, 2.61 µM; with RPMI-8226 leukemia, 1.12 µM; in the assay with OVCAR-8 ovarian, 1.53 µM; in the assay on HOP-62 NSCLC, 1.66 µM; in the assay on OVCAR-4 ovarian, 2.05 µM. For the same compound, the GI50 with HOP-92 NSCLC was 1.17 µM; in the assay with SN12C renal, 1.74 µM; in the assay with SF-295 CNS, 1.22 µM; in the assay on MOLT-4 leukemia it was 0.79 µM. The TGI was 11.5 µM with COLO 205 colon; 22.3 µM in the assay with EKVX NSCLC; above 50 µM with RPMI-8226 leukemia; above 50 µM in the assay on OVCAR-8 ovarian; 15 µM with HOP-62 NSCLC; 43.1 µM with OVCAR-4 ovarian. Besides, the TGI in the assay with HOP-92 NSCLC amounted to 3.67 µM; in the assay on SN12C renal, 8.85 µM; in the assay on SF-295 CNS, 3.01 µM; with MOLT-4 leukemia, 2.93 µM.

In the case of `CC(C)Cc1ccc(C(C)/C=C2\CCC(CN3CCCCC3)C2=O)cc1` (stereo not drawn), the TGI in the assay on COLO 205 colon stood at 15.6 µM; with EKVX NSCLC, 21.1 µM; with RPMI-8226 leukemia, 6.65 µM; in the assay on OVCAR-8 ovarian it was 12.8 µM; in the assay with HOP-62 NSCLC, 17.6 µM; with OVCAR-4 ovarian, 14.2 µM. In addition, the TGI turned out to be 30.4 µM in the assay with HOP-92 NSCLC, 4.44 µM with SN12C renal, 26.5 µM with SF-295 CNS and 5.7 µM in the assay on MOLT-4 leukemia.
